Assays:
Type in all cases: binding
JAK2 = molecular target: T1, JAK2 (Homo sapiens, UniProt O60674); assay: Kinobeads assay with immunodetection, JAK2; details: mixed Molt4/Ramos lysate, read-out: Inhibition values (IC50) JAK2
T1 construct: endogenous in cells; host or cells: Molt4 (ATCC CRL-1582) and Ramos (ATCC CRL-1596) cells; mixed lysate 1:2
Summary of the method: (§1)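 Molt4 plus Ramos lysate (1:2), 10 mg/mL, mixed with compound dilutions (1:3 series from 5 mM DMSO stock) and kinobeads; 3 h, cold room. Bead-bound JAKs eluted, dot blot immunodetection, IC50 from dose-response.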

JAK3 = molecular target: T2, JAK3 (Homo sapiens, UniProt P52333); assay: Kinobeads assay with immunodetection, JAK3; details: Kinobeads assay, mixed Molt4/Ramos lysate; read-out: Inhibition values (IC50) JAK3
T2 construct: endogenous in cells; host or cells: Molt4 (ATCC CRL-1582) and Ramos (ATCC CRL-1596) cells; mixed lysate 1:2
T2 sequence (P52333 1-1124): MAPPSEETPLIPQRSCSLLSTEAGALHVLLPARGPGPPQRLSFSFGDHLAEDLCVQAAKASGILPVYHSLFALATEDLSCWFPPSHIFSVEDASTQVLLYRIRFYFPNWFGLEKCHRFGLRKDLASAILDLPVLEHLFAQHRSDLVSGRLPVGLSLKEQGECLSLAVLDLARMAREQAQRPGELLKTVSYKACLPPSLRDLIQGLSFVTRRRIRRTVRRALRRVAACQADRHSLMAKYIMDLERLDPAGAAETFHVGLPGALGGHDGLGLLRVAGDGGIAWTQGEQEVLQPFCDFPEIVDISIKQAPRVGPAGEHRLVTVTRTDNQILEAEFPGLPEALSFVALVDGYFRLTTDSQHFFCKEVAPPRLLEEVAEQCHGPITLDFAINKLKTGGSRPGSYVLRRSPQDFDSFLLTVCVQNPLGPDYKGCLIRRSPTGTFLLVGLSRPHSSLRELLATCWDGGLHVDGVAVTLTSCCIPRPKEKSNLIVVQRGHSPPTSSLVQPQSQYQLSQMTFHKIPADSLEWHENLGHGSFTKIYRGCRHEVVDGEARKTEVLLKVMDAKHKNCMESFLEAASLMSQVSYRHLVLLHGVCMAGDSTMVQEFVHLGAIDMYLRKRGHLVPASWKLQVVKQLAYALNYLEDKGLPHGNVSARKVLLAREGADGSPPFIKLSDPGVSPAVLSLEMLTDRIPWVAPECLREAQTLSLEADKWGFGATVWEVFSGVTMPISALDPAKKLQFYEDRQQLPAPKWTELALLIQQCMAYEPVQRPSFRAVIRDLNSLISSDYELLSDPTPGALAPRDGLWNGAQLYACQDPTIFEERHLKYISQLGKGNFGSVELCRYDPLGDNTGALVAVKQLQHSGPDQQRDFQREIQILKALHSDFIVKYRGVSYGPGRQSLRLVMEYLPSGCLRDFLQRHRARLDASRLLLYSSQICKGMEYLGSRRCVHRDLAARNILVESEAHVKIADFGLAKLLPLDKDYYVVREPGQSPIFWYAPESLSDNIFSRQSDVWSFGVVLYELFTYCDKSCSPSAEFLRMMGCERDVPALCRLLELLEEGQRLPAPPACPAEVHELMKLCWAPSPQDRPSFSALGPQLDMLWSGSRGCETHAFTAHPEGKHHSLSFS
Summary of the method: as §1

JAK1 = molecular target: T3, JAK1 (Homo sapiens, UniProt P23458); assay: Kinobeads assay with immunodetection, JAK1; details: for IC50: Kinobeads assay, mixed Molt4/Ramos lysate, read-out: Inhibition values (IC50) JAK1
T3 construct: endogenous in cells; host or cells: Molt4 (ATCC CRL-1582) and Ramos (ATCC CRL-1596) cells; mixed lysate 1:2
Summary of the method: as §1

TYK2 = molecular target: T4, TYK2 (Homo sapiens, UniProt P29597); assay: Kinobeads assay with immunodetection, TYK2; details: for IC50: Kinobeads assay, mixed Molt4/Ramos lysate, read-out: Inhibition values (IC50) Tyk2
T4 construct: endogenous in cells; host or cells: Molt4 (ATCC CRL-1582) and Ramos (ATCC CRL-1596) cells; mixed lysate 1:2
Summary of the method: as §1

T4 sequence (P29597 whole entry): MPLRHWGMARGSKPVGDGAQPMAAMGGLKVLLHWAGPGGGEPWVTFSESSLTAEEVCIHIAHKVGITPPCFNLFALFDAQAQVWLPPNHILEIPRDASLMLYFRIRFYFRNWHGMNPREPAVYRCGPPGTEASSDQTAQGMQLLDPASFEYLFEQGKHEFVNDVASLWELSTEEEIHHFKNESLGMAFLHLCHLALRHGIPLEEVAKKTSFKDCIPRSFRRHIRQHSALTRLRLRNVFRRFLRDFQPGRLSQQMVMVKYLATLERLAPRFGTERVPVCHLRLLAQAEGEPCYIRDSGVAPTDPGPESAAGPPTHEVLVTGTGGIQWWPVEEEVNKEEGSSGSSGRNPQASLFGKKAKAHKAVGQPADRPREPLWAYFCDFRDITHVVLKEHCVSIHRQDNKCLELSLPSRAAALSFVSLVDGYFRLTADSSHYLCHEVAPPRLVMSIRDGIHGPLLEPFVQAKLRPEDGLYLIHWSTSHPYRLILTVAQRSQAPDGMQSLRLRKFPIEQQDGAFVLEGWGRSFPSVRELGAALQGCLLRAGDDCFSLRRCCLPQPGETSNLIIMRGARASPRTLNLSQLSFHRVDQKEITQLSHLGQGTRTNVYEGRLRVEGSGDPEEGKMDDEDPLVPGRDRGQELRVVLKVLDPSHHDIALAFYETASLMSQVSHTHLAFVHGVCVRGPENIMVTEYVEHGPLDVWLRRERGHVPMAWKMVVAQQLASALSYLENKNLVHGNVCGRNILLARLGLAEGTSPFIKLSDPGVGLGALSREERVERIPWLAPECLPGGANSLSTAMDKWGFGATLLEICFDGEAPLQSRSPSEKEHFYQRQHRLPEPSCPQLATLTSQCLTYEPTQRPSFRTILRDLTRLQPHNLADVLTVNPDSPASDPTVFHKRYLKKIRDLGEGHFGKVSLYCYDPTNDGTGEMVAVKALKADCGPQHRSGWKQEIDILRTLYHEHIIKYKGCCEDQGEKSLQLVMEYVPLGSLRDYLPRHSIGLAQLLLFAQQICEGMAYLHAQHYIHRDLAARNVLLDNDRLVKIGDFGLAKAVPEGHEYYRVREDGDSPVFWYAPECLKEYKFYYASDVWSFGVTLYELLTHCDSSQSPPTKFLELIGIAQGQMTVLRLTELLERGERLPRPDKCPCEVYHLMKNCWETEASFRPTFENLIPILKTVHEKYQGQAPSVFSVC
T1 sequence (O60674 whole entry): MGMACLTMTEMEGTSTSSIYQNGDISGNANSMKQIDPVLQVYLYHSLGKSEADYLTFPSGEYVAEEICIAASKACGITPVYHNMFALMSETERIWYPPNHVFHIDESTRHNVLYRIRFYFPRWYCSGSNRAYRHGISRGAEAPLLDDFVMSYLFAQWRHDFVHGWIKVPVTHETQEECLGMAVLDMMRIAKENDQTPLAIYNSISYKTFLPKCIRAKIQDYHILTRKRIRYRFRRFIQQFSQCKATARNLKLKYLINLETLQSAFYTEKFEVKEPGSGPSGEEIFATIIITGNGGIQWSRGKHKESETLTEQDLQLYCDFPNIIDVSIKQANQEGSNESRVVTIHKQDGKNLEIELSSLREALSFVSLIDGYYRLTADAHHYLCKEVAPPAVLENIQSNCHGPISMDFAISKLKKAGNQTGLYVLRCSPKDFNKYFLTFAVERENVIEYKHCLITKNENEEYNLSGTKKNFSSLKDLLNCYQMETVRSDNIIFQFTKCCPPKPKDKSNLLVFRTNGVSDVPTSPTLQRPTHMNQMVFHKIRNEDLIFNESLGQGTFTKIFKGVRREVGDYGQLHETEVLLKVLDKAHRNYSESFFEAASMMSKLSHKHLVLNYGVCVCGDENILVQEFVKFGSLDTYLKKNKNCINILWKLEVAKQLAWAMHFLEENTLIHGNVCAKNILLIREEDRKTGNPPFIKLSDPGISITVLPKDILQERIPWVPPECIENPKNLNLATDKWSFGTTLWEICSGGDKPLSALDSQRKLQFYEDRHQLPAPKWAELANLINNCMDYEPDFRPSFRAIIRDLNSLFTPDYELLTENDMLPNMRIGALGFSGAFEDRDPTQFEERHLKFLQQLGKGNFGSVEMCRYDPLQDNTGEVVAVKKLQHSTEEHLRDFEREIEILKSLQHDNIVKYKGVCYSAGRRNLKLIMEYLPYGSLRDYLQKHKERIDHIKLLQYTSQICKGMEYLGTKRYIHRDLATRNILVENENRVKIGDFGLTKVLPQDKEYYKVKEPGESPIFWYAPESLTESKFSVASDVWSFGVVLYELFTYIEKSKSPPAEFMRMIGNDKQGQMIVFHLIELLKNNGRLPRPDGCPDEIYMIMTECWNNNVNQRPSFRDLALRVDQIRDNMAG
T3 sequence (P23458 whole entry): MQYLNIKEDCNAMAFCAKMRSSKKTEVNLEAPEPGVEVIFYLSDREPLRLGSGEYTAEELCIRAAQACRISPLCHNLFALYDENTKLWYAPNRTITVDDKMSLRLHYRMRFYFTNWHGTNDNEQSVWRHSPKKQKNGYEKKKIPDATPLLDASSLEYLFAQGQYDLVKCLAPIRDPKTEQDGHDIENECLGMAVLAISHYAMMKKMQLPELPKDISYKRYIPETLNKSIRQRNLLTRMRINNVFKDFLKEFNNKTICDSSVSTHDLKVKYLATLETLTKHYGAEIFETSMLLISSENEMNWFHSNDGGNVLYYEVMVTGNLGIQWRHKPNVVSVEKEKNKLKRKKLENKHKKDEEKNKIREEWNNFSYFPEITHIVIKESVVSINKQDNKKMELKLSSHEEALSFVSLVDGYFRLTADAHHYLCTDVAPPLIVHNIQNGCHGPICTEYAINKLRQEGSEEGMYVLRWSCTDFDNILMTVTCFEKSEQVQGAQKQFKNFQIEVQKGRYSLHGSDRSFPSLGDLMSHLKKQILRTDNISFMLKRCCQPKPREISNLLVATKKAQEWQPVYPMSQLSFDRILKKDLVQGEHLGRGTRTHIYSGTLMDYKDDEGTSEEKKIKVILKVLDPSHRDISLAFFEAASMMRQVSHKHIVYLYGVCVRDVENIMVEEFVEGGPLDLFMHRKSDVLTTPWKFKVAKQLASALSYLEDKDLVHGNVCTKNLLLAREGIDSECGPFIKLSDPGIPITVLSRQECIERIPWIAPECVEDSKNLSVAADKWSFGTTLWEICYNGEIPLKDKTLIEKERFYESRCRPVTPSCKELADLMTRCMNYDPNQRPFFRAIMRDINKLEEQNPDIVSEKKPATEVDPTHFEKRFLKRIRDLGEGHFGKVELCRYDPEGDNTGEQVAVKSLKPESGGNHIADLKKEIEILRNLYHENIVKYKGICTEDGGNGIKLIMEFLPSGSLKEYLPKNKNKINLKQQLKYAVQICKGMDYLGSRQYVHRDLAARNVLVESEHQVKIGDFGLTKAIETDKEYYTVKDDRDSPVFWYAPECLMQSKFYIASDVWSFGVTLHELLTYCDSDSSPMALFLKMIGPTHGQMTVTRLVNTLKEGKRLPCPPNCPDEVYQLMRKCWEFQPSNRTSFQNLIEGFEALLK

IC50 (JAK2)	IC50 (JAK3)	Selectivity ratio over JAK2, JAK1 (JAK1)	IC50 (JAK1)	IC50 (TYK2)	Selectivity ratio over JAK2, Tyk2 (TYK2)	SMILES
1000 to 10000 nM	100 to 1000 nM	JAK1 = 56	< 100 nM	< 100 nM	–	Cc1cnc(Nc2cnn(CC(F)F)c2)nc1NC[C@@H]1C[C@H](F)CN1CCC#N [Example 121, 3-((2S,4S)-2-(((2-((1-(2,2-difluoroethyl)-1H-pyrazol-4-yl)amino)-5-methylpyrimidin-4-yl)amino)methyl)-4-fluoropyrrolidin-1-yl)propanenitrile]
1000 to 10000 nM	100 to 1000 nM	–	100 to 1000 nM	< 100 nM	Tyk2 = 80	Cc1cnc(Nc2cnn(C)c2)nc1NC[C@H]1CCCN1CCC#N [Example 108, (R)-3-(2-(((5-methyl-2-((1-methyl-1H-pyrazol-4-yl)amino)pyrimidin-4-yl)amino)methyl)pyrrolidin-1-yl)propanenitrile]
1000 to 10000 nM	100 to 1000 nM	JAK1 = 16	< 100 nM	100 to 1000 nM	–	Cc1cnc(Nc2cnn(C)c2)nc1NC[C@@H]1C[C@H](F)CN1CC#N [Example 102, 2-((2S,4S)-4-fluoro-2-(((5-methyl-2-((1-methyl-1H-pyrazol-4-yl)amino)pyrimidin-4-yl)amino)methyl)pyrrolidin-1-yl)acetonitrile]
1000 to 10000 nM	1000 to 10000 nM	–	100 to 1000 nM	< 100 nM	Tyk2 = 609	CC(C)NC(=O)Cn1cc(Nc2nccc(NC[C@H]3CCCN3C(=O)CCC#N)n2)cn1 [Example 94, (R)-2-(4-((4-(((1-(3-cyanopropanoyl)pyrrolidin-2-yl)methyl)amino)pyrimidin-2-yl)amino)-1H-pyrazol-1-yl)-N-isopropylacetamide]
100 to 1000 nM	100 to 1000 nM	–	< 100 nM	< 100 nM	Tyk2 = 69	Cc1cnc(Nc2cnn(C)c2)nc1NC[C@H]1CCCN1C(=O)CC#N [Example 109, (R)-3-(2-(((5-methyl-2-((1-methyl-1H-pyrazol-4-yl)amino)pyrimidin-4-yl)amino)methyl)pyrrolidin-1-yl)-3-oxopropanenitrile]
1000 to 10000 nM	100 to 1000 nM	–	100 to 1000 nM	< 100 nM	Tyk2 = 53	Cn1cc(Nc2ncc(F)c(NC[C@H]3CCCN3CCC#N)n2)cn1 [Example 112, (R)-3-(2-(((5-fluoro-2-((1-methyl-1H-pyrazol-4-yl)amino)pyrimidin-4-yl)amino)methyl)pyrrolidin-1-yl)propanenitrile]
1000 to 10000 nM	1000 to 10000 nM	JAK1 = 55	< 100 nM	< 100 nM	–	Cc1cnc(Nc2cnn(C)c2)nc1NC[C@H]1CCN(C(=O)CCC#N)C1 [Example 111, (R)-4-(3-(((5-methyl-2-((1-methyl-1H-pyrazol-4-yl)amino)pyrimidin-4-yl)amino)methyl)pyrrolidin-1-yl)-4-oxobutanenitrile]

More lines, now with the values behind:

SMILES	IC50 (JAK2)	IC50 (JAK3)	Selectivity ratio over JAK2, JAK1 (JAK1)	IC50 (JAK1)	IC50 (TYK2)	Selectivity ratio over JAK2, Tyk2 (TYK2)
CN1CCCC1CNc1nc(Nc2cnn(C)c2)ncc1Cl (stereo not drawn) [Example 62, 5-chloro-N^2-(1-methyl-1H-pyrazol-4-yl)-N^4-((1-methylpyrrolidin-2-yl)methyl)pyrimidine-2,4-diamine]	> 10000 nM	100 to 1000 nM	JAK1 = 23	100 to 1000 nM	> 10000 nM	–
Cl.Cn1cc(Nc2ncc(F)c(NC[C@H]3CCCN3S(C)(=O)=O)n2)cn1 [Example 74, (R)-5-fluoro-N^2-(1-methyl-1H-pyrazol-4-yl)-N^4-((1-(methylsulfonyl)pyrrolidin-2-yl)methyl)pyrimidine-2,4-diamine Hydrochloride]	1000 to 10000 nM	100 to 1000 nM	–	100 to 1000 nM	< 100 nM	Tyk2 = 50
CC(=O)N1CCC[C@H]1CNc1nc(Nc2cnn(C)c2)ncc1Cl [Example 8, (S)-1-(2-(((5-chloro-2-((1-methyl-1H-pyrazol-4-yl)amino)pyrimidin-4-yl)amino)methyl)pyrrolidin-1-yl)ethanone]	1000 to 10000 nM	100 to 1000 nM	JAK1 = 17	100 to 1000 nM	100 to 1000 nM	–
Cn1cc(Nc2ncc(Cl)c(NC[C@H]3CCCN3C(=O)CCC#N)n2)cn1 [Example 86, (R)-4-(2-(((5-chloro-2-((1-methyl-1H-pyrazol-4-yl)amino)pyrimidin-4-yl)amino)methyl)pyrrolidin-1-yl)-4-oxobutanenitrile]	100 to 1000 nM	< 100 nM	–	< 100 nM	< 100 nM	Tyk2 = 33
Cn1cc(Nc2ncc(Cl)c(NC[C@@H]3C[C@H](F)CN3CCS(C)(=O)=O)n2)cn1 [Example 91, 5-chloro-N^4-(((2S,4S)-4-fluoro-1-(2-(methylsulfonyl)ethyl)pyrrolidin-2-yl)methyl)-N^2-(1-methyl-1H-pyrazol-4-yl)pyrimidine-2,4-diamine]	100 to 1000 nM	< 100 nM	JAK1 = 27	< 100 nM	< 100 nM	–
CC(=O)N1CC[C@@H](CNc2nc(Nc3cnn(CCO)c3)ncc2Cl)C1 [Example 27, (S)-1-(3-(((5-chloro-2-((1-(2-hydroxyethyl)-1H-pyrazol-4-yl)amino)pyrimidin-4-yl)amino)methyl)pyrrolidin-1-yl)ethanone]	1000 to 10000 nM	100 to 1000 nM	JAK1 = 23	100 to 1000 nM	100 to 1000 nM	–
Cn1cc(Nc2ncc(Cl)c(NC[C@H]3CCCN3CCS(C)(=O)=O)n2)cn1 [Example 50, (R)-5-chloro-N^2-(1-methyl-1H-pyrazol-4-yl)-N^4-((1-(2-(methylsulfonyl)ethyl)pyrrolidin-2-yl)methyl)pyrimidine-2,4-diamine]	100 to 1000 nM	< 100 nM	–	< 100 nM	< 100 nM	Tyk2 = 25
CN(C)C(=O)Cn1cc(Nc2ncc(Cl)c(NC[C@H]3CCCN3S(C)(=O)=O)n2)cn1 [Example 68, (R)-2-(4-(5-chloro-4-((1-(methylsulfonyl)pyrrolidin-2-yl)methylamino)pyrimidin-2-ylamino)-1H-pyrazol-1-yl)-N,N-dimethylacetamide]	< 100 nM	< 100 nM	–	< 100 nM	< 100 nM	Tyk2 = 13
Cn1cc(Nc2ncc(Cl)c(NC[C@H]3CCN(C(=O)CC#N)C3)n2)cn1 [Example 58, (R)-3-(3-((5-chloro-2-(1-methyl-1H-pyrazol-4-ylamino)pyrimidin-4-ylamino)methyl)pyrrolidin-1-yl)-3-oxopropanenitrile]	100 to 1000 nM	< 100 nM	JAK1 = 15	< 100 nM	< 100 nM	–
CS(=O)(=O)N1CCC[C@@H]1CNc1nc(Nc2cnn(CCO)c2)ncc1Cl [Example 6, (R)-2-(4-((5-chloro-4-(((1-(methylsulfonyl)pyrrolidin-2-yl)methyl)amino)pyrimidin-2-yl)amino)-1H-pyrazol-1-yl)ethanol]	100 to 1000 nM	< 100 nM	–	< 100 nM	< 100 nM	Tyk2 = 11
Cn1cc(Nc2ncc(Cl)c(NC[C@H]3CCCN3C(=O)NC3CC3)n2)cn1 [Example 89, (R)-2-(((5-chloro-2-((1-methyl-1H-pyrazol-4-yl)amino)pyrimidin-4-yl)amino)methyl)-N-cyclopropylpyrrolidine-1-carboxamide]	100 to 1000 nM	100 to 1000 nM	–	< 100 nM	< 100 nM	Tyk2 = 5
